Data set [1] in a line: Relative rates of photooxidation of the linker in CMP-L-CA4 with ROS quenchers. To be noted: 1.2 μmol each in CDCl3, 690 nm, 10 mW/cm^2. Format: physicochemical. The method, then:
The reaction mixture was irradiated by using diode laser (690 nm, 10 mW/cm^2). The oxidation of the olefin with SO was monitored every 5 min by the decrease of the olefinic peaks of the aminoacrylate in ^1H-NMR

For data set [2] the following is noted: literature (ref 88); cited from earlier work.
The nature of data set [3]: Oxidation of aminoacrylate linker model compound with ROS quenchers. The class given is physicochemical. The following applies: model compound 9 mM, CMP-OMe 9 mM, quencher 9 mM, 690 nm, 100 mW/cm^2. The method, then: To determine the effect of specific ROS quenchers on the oxidation of the aminoacrylate linker, the rate of oxidation of aminoacrylate linker was determined by ^1H-NMR using the vinyl proton of the aminoacrylate linker (FIG. 20). A solution of (E)-N-phenyl-3-(piperidin-1-yl)acrylamide (9 mM), a photosensitizer (CMP-OMe, 9 mM), a ROS quencher (0 or 9 mM) was in a CDCl3 solvent in a NMR tube was exposed to the irradiation (690 nm diode laser, 100 mW/cm^2) and ^1H-NMR was taken every 5 min. The ROS quencher was either a singlet oxygen quencher (DABCO or β-Carotene) or a superoxide quencher (1,4-Benzoquinone) and the photosensitizer was CMP-OMe (5-(4-methoxyphenyl)-10,15,20-triphenyl-21,23-dithiaporphyrin).

Data set [4] in a line: Photooxygenation of model compounds 2-16 with dithiaporphyrin photosensitizer, 690 nm diode laser (Example 3). Format: physicochemical. As to the method:
To evaluate the rate of oxidation by singlet oxygen, the model compounds 2-7 were irradiated by a diode laser (690 nm, 200 mW/cm2, 25 min) in the presence of the photosensitizer 5-(4-methoxyphenyl)-10,15,20-[…]-21,23-dithiaporphyrin (FIG. 11 and Table 5). The reaction of olefins with singlet oxygen was monitored by the decrease of olefinic proton peaks in the ^1H-NMR spectra. (Z)-1,2-Bis(phenylthio)ethylene was used as positive control. […] Oxidation of only the nitrogen analogues is probably due to electron donation from the nitrogen to the carbonyl group making the olefinic bond electron rich for attack by singlet oxygen.
In a NMR tube, an olefin (0.0048 mmol) was dissolved in CDCl3 (0.5 mL). The photosensitizer compound (32), 3 mg, 0.0048 mmol] was added to this solution. […] The reaction of olefins with singlet oxygen was monitored by the decrease of olefinic peaks in ^1H-NMR spectra. In the case of compound 14, 15 and 16 no photosensitizer was added.

A short description of data set [5]: Photooxidation of 1,2-diheteroatom-substituted olefins with CMP-OMe, 690 nm diode laser (Example 2). The class given is physicochemical. As to the method: In a NMR tube, an olefin (0.0048 mmol) was dissolved in CDCl3 (0.5 mL). The photosensitizer [5-(4-methoxyphenyl)-10,15,20-triphenyl-21-23-dithiaporphyrin, CMP-OMe, 3 mg, 0.0048 mmol] was added to this solution. Then, the reaction mixture was irradiated for 15 min using a diode laser (690 nm, 200 mW/cm^2). The reaction of olefins with singlet oxygen was monitored by the decrease of olefinic peaks in ^1H-NMR spectra. The formation of the photooxidation products were also determined by appearance of the formate (or thioformate) peaks in ^1H-NMR spectra.
To examine the oxidation rate of these electron-rich alkenes with singlet oxygen (Scheme 4), compounds 6, 8, and 10 were irradiated in the presence of 5-(4-methoxyphenyl)-10,15,20-triphenyl-21,23-dithiaporphyrin as a photosensitizer.^53 All experiments were performed following the standard procedure previously set with a slight modification by using a 690 nm diode laser source (200 mW/cm^2).^35 In the experiments, the amount of sensitizer used was not catalytic. Here, the ratio of olefin and photosensitizer used was 1:1 to mimic the situation of prodrug where the olefinic linker could be used for connecting one drug molecule to one photosensitizer molecule.^7,35 The reaction solutions were irradiated for 15 min and monitored every 5 min using olefinic peaks in ^1H-NMR each time to monitor the progress of the reactions. Upon the oxidation by singlet oxygen, the olefinic peaks decreased.

For data set [6], the target named is T1, tubulin (Sus scrofa, UniProt P02554).
T1 construct: purchased Cytoskeleton, Inc. BK011P
T1 sequence (P02554 whole entry): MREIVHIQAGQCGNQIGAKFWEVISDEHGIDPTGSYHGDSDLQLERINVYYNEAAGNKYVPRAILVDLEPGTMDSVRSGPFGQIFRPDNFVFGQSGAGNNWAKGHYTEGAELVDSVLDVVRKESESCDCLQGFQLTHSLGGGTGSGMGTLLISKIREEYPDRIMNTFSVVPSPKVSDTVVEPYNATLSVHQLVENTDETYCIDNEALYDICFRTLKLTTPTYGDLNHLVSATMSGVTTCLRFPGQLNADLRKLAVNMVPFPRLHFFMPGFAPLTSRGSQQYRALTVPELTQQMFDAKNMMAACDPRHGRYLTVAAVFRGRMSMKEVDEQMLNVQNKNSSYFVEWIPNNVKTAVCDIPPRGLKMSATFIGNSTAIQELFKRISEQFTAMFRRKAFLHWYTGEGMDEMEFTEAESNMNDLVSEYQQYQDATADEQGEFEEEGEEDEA
T1 sequence (P02550 whole entry partner): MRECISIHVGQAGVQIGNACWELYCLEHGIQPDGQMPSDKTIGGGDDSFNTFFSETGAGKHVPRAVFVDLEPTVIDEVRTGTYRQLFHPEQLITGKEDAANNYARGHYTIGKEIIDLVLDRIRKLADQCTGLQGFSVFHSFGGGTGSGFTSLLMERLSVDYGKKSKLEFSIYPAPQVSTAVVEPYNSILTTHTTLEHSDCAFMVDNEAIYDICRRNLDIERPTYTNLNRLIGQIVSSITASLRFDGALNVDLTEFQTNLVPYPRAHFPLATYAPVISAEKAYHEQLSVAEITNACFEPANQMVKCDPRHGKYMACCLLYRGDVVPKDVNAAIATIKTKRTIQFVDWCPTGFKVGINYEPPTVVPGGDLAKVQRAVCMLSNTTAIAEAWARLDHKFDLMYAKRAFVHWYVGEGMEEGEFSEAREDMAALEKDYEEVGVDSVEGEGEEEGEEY
Nature of the data set: Fluorescence-based tubulin polymerization assay. The class given is biochemical. To be noted: 3 μM. As to the method: Paclitaxel and CA4 were used as positive control drugs (a polymerization enhancer and an inhibitor, respectively) in addition to the negative control group (FIG. 32).
The fluorescence-based tubulin polymerization was determined by using a kit supplied by Cytoskeleton, Inc. (cat #=BK011P). Its basic principle is that the fluorescence reporter increases as it is incorporated into microtubules during the course of polymerization. The assay was performed following the experimental procedure as described in version 2.1 of the tubulin polymerization assay kit manual. Briefly, the test drug (final concentration=3 μM) was added to a mixture of tubulin and GTP in a buffer solution, and the reaction mixture was incubated at 37° C. Fluorescence was monitored (excitation=360 nm and emission=450 nm) by using a fluorescence plate reader (SpectraMax Gemini EM, Molecular device). Paclitaxel and CA4 were included in the assay as positive controls in addition to the negative control (vehicle only).

The nature of data set [7]: 1H-NMR of drugs and model linker compound with CMP-OMe before and after irradiation. The class given is physicochemical. To be noted: 1H-NMR. An excerpt:
The cleavage of aminoacrylate linkers after irradiation was supported by the increased coumarin fluorescence of 9 by irradiation (FIGS. 14-21). The unique peak of each compound was integrated against the peak of CMP-OMe (four protons of CMP-OMe at 9.7 ppm, FIG. 14), which was known to be inert to singlet oxygen oxidation. […] However, we observed 77% decrease of the proton peak of the aminoacrylate linker after the irradiation (FIG. 21). […] PD 9 had negligible coumarin emission compared to that of free coumarin at the equimolar concentration. In the presence of 10 μM of 9, MCF-7 cells were incubated for 24 h to activate dPS. Then, the samples were irradiated by visible light (540±10 nm, 8 mW/cm^2, 30 min). […] The released free coumarin was also detected and quantified by HPLC based on the standard curve of free coumarin. As such, almost 99% of 9 released coumarin while only 64% of dPS of 9 were activated when irradiated.

Data set [8] can be described thus: Photophysical properties of selected compounds in DMSO. The class given is physicochemical.
The subject of data set [9] is MCF-7 cells. Nature of the data set: Phototoxicity, MTT (Example 5). Format: cell-based. As to the method:
On the other hand, only a photodynamic effect could damage cells by [CMP-NCL-CA4+hv].
MCF-7 cells were maintained in minimum essential medium (α-MEM) supplemented with 10% bovine growth serum, 2 mM L-glutamine, 50 units/mL penicillin G, 50 μg/mL streptomycin and 1.0 μg/mL fungizone. MCF-7 cells (5,000 cells/well) were seeded on 96-well plates in the medium and then incubated for 24 h at 37° C. in 5% CO2. Stock solutions (2 mM) were prepared in DMSO. The stocks were further diluted with medium to get necessary final concentrations. The diluted solution (10 μL) was then added to each well (190 μL). The plates were incubated for 24 h and then removed from the incubator. For the phototoxicity study: The plate without a cover was placed on an orbital shaker (Lab-line, Barnstead International) and irradiated by using a diode laser (690 nm, 5.6 mW/cm^2) for 30 min. To ensure uniformity of the light during the irradiation, each plate was shaken gently on an orbital shaker. […] Cell viability was determined after 3 days by using the MTT assay. […] Then, the MTT solution was removed and the cells were dissolved in 200 μL of DMSO and the absorbance within each well was measured at 570 nm with background subtraction at 650 nm. The cell viability was then quantified by measuring the absorbance of the treated wells compared to that of the untreated wells (controls) and expressed as a percentage.

Data set [10] deals with MCF-7 cells. Nature of the data set: Dark toxicity, MTT (Example 5). The class given is cell-based. As to the method: It seemed that the bulky groups, CMP-L and CMP-NCL, reduced the cytotoxic activity of CA4, presumably through the interference of its binding to tubulin as estimated by the modeling study.
MCF-7 cells were maintained in minimum essential medium (α-MEM) supplemented with 10% bovine growth serum, 2 mM L-glutamine, 50 units/mL penicillin G, 50 μg/mL streptomycin and 1.0 μg/mL fungizone. MCF-7 cells (5,000 cells/well) were seeded on 96-well plates in the medium and then incubated for 24 h at 37° C. in 5% CO2. Stock solutions (2 mM) were prepared in DMSO. The stocks were further diluted with medium to get necessary final concentrations. The diluted solution (10 μL) was then added to each well (190 μL). The plates were incubated for 24 h and then removed from the incubator. For the phototoxicity study: The plate without a cover was placed on an orbital shaker (Lab-line, Barnstead International) and irradiated by using a diode laser (690 nm, 5.6 mW/cm^2) for 30 min. To ensure uniformity of the light during the irradiation, each plate was shaken gently on an orbital shaker. For the dark toxicity study: Plates were kept in the dark for 30 min, and then returned to the incubator. Cell viability was determined after 3 days by using the MTT assay. Briefly, a 10 μL solution of MTT (10 mg in 1 mL PBS buffer) was added to each well and the plate was incubated for 4 h. Then, the MTT solution was removed and the cells were dissolved in 200 μL of DMSO and the absorbance within each well was measured at 570 nm with background subtraction at 650 nm. The cell viability was then quantified by measuring the absorbance of the treated wells compared to that of the untreated wells (controls) and expressed as a percentage.

The mark [11] stands for this setting: 0 min, 690 nm diode laser, 200 mW/cm^2, CDCl3, no added photosensitizer for 14, 15, 16.

Turning to `C1CN2CCN1CC2` [DABCO, 1,4-diazabicyclo[2.2.2]octane], the “Effect of ROS quencher on oxidation of aminoacrylate linker of CMP-L-CA4” value (from here on “Effect of ROS quencher … of CMP-L-CA4”) in data set [1] is recorded as “dramatically delayed the oxidation of aminoacrylate”. In data set [2], the “Singlet oxygen quenching rate constant k” value was 2.6e+08 M⁻¹ s⁻¹. For the same compound, the “Effect of ROS quencher on oxidation of the aminoacrylate linker” value (“Effect … of the aminoacrylate linker” below) in data set [3] was “effectively delayed the oxidation of the aminoacrylate linker”.
For the compound “(E)-((13S)-13-Methyl-17-oxo-7,8,9,11,12,13,14,15,16,17-decahydro-6H cyclopenta[a] phenanthren-3-yl)3-(4-((2-phenoxy-10,15,20-triphenyl-21,23-dithiaporphyrinacetoxy)methyl) piperidin-1-yl)acrylate [Compound 16 (Example 3)]”, the “Percentile of remaining compound” value came to 100 in data set [4] (setting [11]), 60 in data set [4] (5 min) and 10 in [4] (10 min). For the same compound, the “Release of parent molecule after irradiation” value in data set [4] (GC-MS / SI) is on record as “successfully released Estrone”. In [4] (in 10 min), the Photo-oxidation was found to be 90%.
In the case of `C(=C/Sc1ccccc1)/Sc1ccccc1` [control, (Z)-1,2-Bis(phenylthio) ethene], the “Remaining olefins (%)” value in [5] (0 min, CMP-OMe, 690 nm, 200 mW/cm^2, CDCl3) is 100%; in data set [5] (5 min), 38%; in [5] (10 min), 11%; in data set [5] (15 min), 0%. Further, the “Percentile of remaining compound” value in data set [4] (setting [11]) was found to be 100; in data set [4] (5 min), 70; in data set [4] (10 min) it was 59; in data set [4] (15 min), 41; in data set [4] (20 min), 23; in [4] (25 min) it was 13. Also, in [4] (25 min of irradiation), the “Decrease of olefinic proton peaks (photo-oxidation)” value came to 87%.
Turning to `CC(=O)O[C@H]1C(=O)[C@@]2(C)[C@H]([C@H](OC(=O)c3ccccc3)[C@]3(O)C[C@H](OC(=O)[C@H](O)[C@@H](NC(=O)c4ccccc4)c4ccccc4)C(C)=C1C3(C)C)[C@]1(OC(C)=O)CO[C@@H]1C[C@@H]2O` [paclitaxel], the “Pattern of kinetic trace of tubulin polymerization” value in data set [6] is “enhancer”.
For the compound `Cc1cc(=O)oc2cc(O)ccc12` [7-hydroxy-4-methyl-coumarin], in [7], the “Oxidation under the irradiation condition” value is “not oxidized at all”. In addition, in [8], the “Extinction Coefficient” value amounted to 15800 M⁻¹ cm⁻¹; the “FQY (φ), fluorescence quantum yield” value came out at 0.14; the “emax (emission maximum)” value was 378 nm; the “λmax (absorption maximum)” value is reported as 325 nm.
For the compound 5-(6) carboxy-fluorescein, in [8], the “Extinction Coefficient” value is 80000 M⁻¹ cm⁻¹; the “FQY (φ), fluorescence quantum yield” value came to 0.90; the “emax (emission maximum)” value was determined as 525 nm; the “λmax (absorption maximum)” value was determined as 462 nm.
In the case of `O=C1C=CC(=O)C=C1` [1,4-benzoquinone], the “Effect of ROS quencher … of CMP-L-CA4” value in data set [1] is listed as “did not have any effect on the oxidation of the aminoacrylate linker”. Also, in data set [3], the “Effect … of the aminoacrylate linker” value is listed as “did not make any delay of the oxidation of the linker”.
Consider `CC1=C(/C=C/C(C)=C/C=C/C(C)=C/C=C/C=C(C)/C=C/C=C(C)/C=C/C2=C(C)CCCC2(C)C)C(C)(C)CCC1` [β-carotene], for which the “Effect of ROS quencher … of CMP-L-CA4” value in data set [1] is recorded as “dramatically delayed the oxidation of aminoacrylate”. In data set [2], the “Singlet oxygen quenching rate constant k” value is 1.2e+10 M⁻¹ s⁻¹. Moreover, the “Effect … of the aminoacrylate linker” value in data set [3] is on record as “effectively delayed the oxidation of the aminoacrylate linker”.
Consider `COc1ccc(/C=C\c2cc(OC)c(OC)c(OC)c2)cc1OCCCN1CCN(C(=O)COc2ccc(-c3c4nc(c(-c5ccccc5)c5ccc(s5)c(-c5ccccc5)c5nc(c(-c6ccccc6)c6ccc3s6)C=C5)C=C4)cc2)CC1` [CMP-NCL-CA4], for which the “Inhibition of tubulin polymerization” value in [6] (1 h incubation at 37° C.) was determined as 9%. Moreover, in data set [9] (IC50 dark vs irradiated), the “Increase of cytotoxicity after irradiation” value amounted to 1.7 fold. Also, the IC50 in data set [9] (MCF-7, 690 nm, 5.6 mW/cm^2, 30 min, read-out: IC50 after irradiation (phototoxicity)) was found to be 1.06 µM; in data set [10] (MCF-7, dark, 3 days, read-out: IC50D (dark toxicity)), 1.8 µM. Also, in data set [10] (dark), the “Reduction of cytotoxicity relative to CA4” value stood at 200 fold.
